Measured values: the NIST ThermoML archive (doi:10.1021/je700260f)
Several values for one entry are separate records, joined by “and”; a condition that tells them apart may be missing. Equal values may be shown once.

Settings: 283.15 K, Liquid, Vibrating tube method

FC(C(F)(F)F)C(F)(F)F [1,1,1,2,3,3,3-heptafluoropropane]
Settings	mass density
25072 kPa	1552.4 kg/m3
25508 kPa	1553.7 kg/m3
25593 kPa	1553.9 kg/m3
25630 kPa	1554.1 kg/m3
25722 kPa	1554.3 kg/m3
25865 kPa	1554.8 kg/m3
25945 kPa	1555.1 kg/m3
25993 kPa	1555.1 kg/m3
26030 kPa	1555.3 kg/m3
26068 kPa	1555.4 kg/m3
26113 kPa	1555.4 kg/m3
26152 kPa	1555.7 kg/m3
26191 kPa	1555.8 kg/m3
26249 kPa	1555.9 kg/m3
26283 kPa	1556 kg/m3
26327 kPa	1556.3 kg/m3
26367 kPa	1556.3 kg/m3
26406 kPa	1556.2 kg/m3
26446 kPa	1556.3 kg/m3
26479 kPa	1556.8 kg/m3
26519 kPa	1556.7 kg/m3
26559 kPa	1556.8 kg/m3
26599 kPa	1557 kg/m3
26650 kPa	1557.1 kg/m3
26683 kPa	1557.3 kg/m3
26723 kPa	1557.3 kg/m3
26757 kPa	1557.3 kg/m3
26796 kPa	1557.5 kg/m3
26886 kPa	1557.8 kg/m3
26921 kPa	1557.9 kg/m3
26968 kPa	1558.1 kg/m3
27001 kPa	1558.1 kg/m3
27029 kPa	1558.2 kg/m3
27058 kPa	1558.3 kg/m3
27082 kPa	1558.3 kg/m3
27131 kPa	1558.5 kg/m3
27170 kPa	1558.7 kg/m3
27199 kPa	1558.8 kg/m3
27228 kPa	1558.8 kg/m3
27271 kPa	1558.9 kg/m3
27533 kPa	1559.8 kg/m3
27563 kPa	1559.9 kg/m3
27596 kPa	1559.8 kg/m3
27629 kPa	1560 kg/m3
27673 kPa	1560 kg/m3
27710 kPa	1560.2 kg/m3
27743 kPa	1560.2 kg/m3
27816 kPa	1560.5 kg/m3
27850 kPa	1560.7 kg/m3
27880 kPa	1560.8 kg/m3
27914 kPa	1560.8 kg/m3
27940 kPa	1560.9 kg/m3
27979 kPa	1561 kg/m3
28024 kPa	1561.2 kg/m3
28058 kPa	1561.1 kg/m3
28091 kPa	1561.4 kg/m3
28124 kPa	1561.5 kg/m3
28168 kPa	1561.6 kg/m3
28466 kPa	1562.5 kg/m3
28514 kPa	1562.7 kg/m3
28558 kPa	1562.7 kg/m3
28591 kPa	1562.8 kg/m3
28620 kPa	1562.8 kg/m3
28657 kPa	1562.9 kg/m3
28690 kPa	1563.1 kg/m3
28727 kPa	1563.2 kg/m3
28761 kPa	1563.3 kg/m3
28795 kPa	1563.4 kg/m3
28837 kPa	1563.6 kg/m3
28875 kPa	1563.5 kg/m3
29088 kPa	1564.2 kg/m3
29357 kPa	1565 kg/m3
29424 kPa	1565.2 kg/m3
29452 kPa	1565.2 kg/m3
29578 kPa	1565.7 kg/m3
29617 kPa	1565.6 kg/m3
29646 kPa	1565.8 kg/m3
29684 kPa	1565.9 kg/m3
29712 kPa	1565.9 kg/m3
29745 kPa	1566.1 kg/m3
29784 kPa	1566.2 kg/m3
29814 kPa	1566.3 kg/m3
29853 kPa	1566.4 kg/m3
29877 kPa	1566.5 kg/m3
29911 kPa	1566.5 kg/m3
29944 kPa	1566.6 kg/m3
29974 kPa	1566.7 kg/m3
30021 kPa	1566.8 kg/m3
30050 kPa	1567 kg/m3
30079 kPa	1567 kg/m3
30151 kPa	1567.2 kg/m3
30190 kPa	1567.4 kg/m3
30219 kPa	1567.5 kg/m3
30259 kPa	1567.4 kg/m3
30288 kPa	1567.5 kg/m3
30323 kPa	1567.7 kg/m3
30361 kPa	1567.8 kg/m3
30390 kPa	1567.7 kg/m3
30425 kPa	1567.9 kg/m3
30460 kPa	1567.9 kg/m3
30499 kPa	1568.2 kg/m3
30529 kPa	1568.3 kg/m3
30560 kPa	1568.3 kg/m3
30595 kPa	1568.5 kg/m3
30635 kPa	1568.6 kg/m3
30666 kPa	1568.6 kg/m3
30696 kPa	1568.7 kg/m3
30743 kPa	1568.9 kg/m3
30783 kPa	1569 kg/m3
30830 kPa	1569.1 kg/m3
30861 kPa	1569.2 kg/m3
30897 kPa	1569.2 kg/m3
30937 kPa	1569.4 kg/m3
30968 kPa	1569.5 kg/m3
30999 kPa	1569.5 kg/m3
31030 kPa	1569.6 kg/m3
31065 kPa	1569.7 kg/m3
31105 kPa	1569.9 kg/m3
31140 kPa	1569.9 kg/m3
31187 kPa	1570 kg/m3
31230 kPa	1570.2 kg/m3
31267 kPa	1570.2 kg/m3
31308 kPa	1570.4 kg/m3
31350 kPa	1570.6 kg/m3
31392 kPa	1570.6 kg/m3
31429 kPa	1570.7 kg/m3
31511 kPa	1570.9 kg/m3
31547 kPa	1571.1 kg/m3
31588 kPa	1571.2 kg/m3
31620 kPa	1571.3 kg/m3
31657 kPa	1571.3 kg/m3
31697 kPa	1571.5 kg/m3
31750 kPa	1571.7 kg/m3
31782 kPa	1571.7 kg/m3
31819 kPa	1571.7 kg/m3
31855 kPa	1571.9 kg/m3
31897 kPa	1572 kg/m3
32027 kPa	1572.4 kg/m3
32095 kPa	1572.5 kg/m3
32132 kPa	1572.7 kg/m3
32164 kPa	1572.9 kg/m3
32391 kPa	1573.4 kg/m3
32884 kPa	1574.5 kg/m3
32921 kPa	1574.8 kg/m3
32959 kPa	1574.9 kg/m3
33280 kPa	1575.7 kg/m3
33348 kPa	1575.9 kg/m3
33384 kPa	1576 kg/m3
33426 kPa	1576 kg/m3
33457 kPa	1576.2 kg/m3
33499 kPa	1576.3 kg/m3
33535 kPa	1576.4 kg/m3
33572 kPa	1576.5 kg/m3
33609 kPa	1576.6 kg/m3
33661 kPa	1576.7 kg/m3
33688 kPa	1576.8 kg/m3
33731 kPa	1576.9 kg/m3
33762 kPa	1576.9 kg/m3
33793 kPa	1577.1 kg/m3
33830 kPa	1577.3 kg/m3
33873 kPa	1577.3 kg/m3
33910 kPa	1577.4 kg/m3
33948 kPa	1577.5 kg/m3
33984 kPa	1577.6 kg/m3
34026 kPa	1577.7 kg/m3
34068 kPa	1577.8 kg/m3
34110 kPa	1577.9 kg/m3
34148 kPa	1577.9 kg/m3
34186 kPa	1578.2 kg/m3
34224 kPa	1578.1 kg/m3
34267 kPa	1578.2 kg/m3
34310 kPa	1578.5 kg/m3
34350 kPa	1578.6 kg/m3
34387 kPa	1578.6 kg/m3
34414 kPa	1578.7 kg/m3
34442 kPa	1578.8 kg/m3
34456 kPa	1578.8 kg/m3
34470 kPa	1578.8 kg/m3
34478 kPa	1578.9 kg/m3
34486 kPa	1578.9 kg/m3
34492 kPa	1579.1 kg/m3
34498 kPa	1579 kg/m3
34504 kPa	1578.9 kg/m3
34505 kPa	1578.9 kg/m3
34506 kPa	1579 kg/m3
34508 kPa	1579 kg/m3
34509 kPa	1579 kg/m3
34511 kPa	1579 kg/m3 and 1579.2 kg/m3
34512 kPa	1579 kg/m3 and 1579.1 kg/m3
34513 kPa	1579.1 kg/m3
34514 kPa	1579.2 kg/m3
34515 kPa	1579 kg/m3 and 1578.9 kg/m3
34516 kPa	1579.1 kg/m3
34517 kPa	1579 kg/m3
34518 kPa	1579 kg/m3
34519 kPa	1578.9 kg/m3 and 1579 kg/m3 and 1579.1 kg/m3
34520 kPa	1578.9 kg/m3 and 1579.1 kg/m3
34521 kPa	1579 kg/m3 and 1578.9 kg/m3
34522 kPa	1579 kg/m3
34523 kPa	1579.1 kg/m3 and 1579 kg/m3
34524 kPa	1579.1 kg/m3 and 1579 kg/m3
34525 kPa	1579 kg/m3 and 1578.9 kg/m3
34526 kPa	1579.1 kg/m3
34527 kPa	1579 kg/m3
34528 kPa	1579.1 kg/m3
